{"source": "patent EP4692082A1", "about": "“CRYSTAL FORM OF 2,6-PIPERIDINEDIONE COMPOUND, AND PREPARATION METHOD THEREFOR AND USE THEREOF” (Zhangzhou Pien Tze Huang Pharmaceutical Co., Ltd., priority 2023, dated 2024)", "key": {"IRAK4": {"biological_target": "T1, IRAK4 (Homo sapiens, UniProt Q9NWZ3)", "T1 construct": "expressed in transfected cells; host or cells: K562 IRAK4-HiBiT cells", "T1 sequence (Q9NWZ3 1-460)": "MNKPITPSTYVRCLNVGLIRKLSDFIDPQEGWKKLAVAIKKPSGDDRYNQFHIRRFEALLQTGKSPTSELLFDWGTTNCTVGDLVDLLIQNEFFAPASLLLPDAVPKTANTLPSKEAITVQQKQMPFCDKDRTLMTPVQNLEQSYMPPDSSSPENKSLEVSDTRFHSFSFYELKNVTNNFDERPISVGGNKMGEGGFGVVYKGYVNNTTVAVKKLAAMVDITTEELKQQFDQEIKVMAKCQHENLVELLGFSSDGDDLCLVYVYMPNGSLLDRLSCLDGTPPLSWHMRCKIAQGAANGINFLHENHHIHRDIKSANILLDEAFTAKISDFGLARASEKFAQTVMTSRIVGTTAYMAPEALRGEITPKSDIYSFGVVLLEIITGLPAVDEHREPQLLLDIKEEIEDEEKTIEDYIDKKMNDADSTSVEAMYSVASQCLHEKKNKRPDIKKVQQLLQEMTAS", "experiment": "Target protein degradation in K562 IRAK4-HiBiT cells (Nano-Glo HiBiT)", "format": "cell-based", "procedure": "• Cells: K562 IRAK4-HiBiT cells • Culture medium: RPMI 1640 + 10% fetal bovine serum + 2 mM glutamine + 1 mM sodium pyruvate + penicillin/streptomycin • Positive control: 1000 nM; negative control: 0.1% DMSO Table 6. Reagents and consumables […]\n• (1) The cell culture medium was discarded, and the cells were washed once with DPBS, digested with trypsin, and counted to prepare a cell suspension of […]. • (2) 25 µL/well of cell suspension was added to the assay plate containing the test compound using Multidrop Combi at medium speed. • (3) The assay plate containing cells was returned to an incubator with 5% CO2 at 37°C and incubated for 16 to 18 hours.\n• (1) 25 µL/well of assay reagent (NanoGlo lysis buffer + substrate + LgBit protein) was added to the assay plate using Multidrop Combi at high speed, and the plate was shaken for 10 minutes. • (2) The plate was centrifuged at 2000 rpm for 1 minute to remove air bubbles. • (3) The plate was read on Envision using US Luminescence detection method.\nThe degradation rate (DR) of the test compound was calculated using the following formula: DR (%) = (RLU vehicle control - RLU compound)/(RLU vehicle control - RLU positive control)*100%, where the vehicle control served as the blank control. […]"}, "IKZF3": {"biological_target": "IKZF3 (Homo sapiens, UniProt Q96SW2+Q9UKT9)", "sequence (Q9UKT9 whole entry)": "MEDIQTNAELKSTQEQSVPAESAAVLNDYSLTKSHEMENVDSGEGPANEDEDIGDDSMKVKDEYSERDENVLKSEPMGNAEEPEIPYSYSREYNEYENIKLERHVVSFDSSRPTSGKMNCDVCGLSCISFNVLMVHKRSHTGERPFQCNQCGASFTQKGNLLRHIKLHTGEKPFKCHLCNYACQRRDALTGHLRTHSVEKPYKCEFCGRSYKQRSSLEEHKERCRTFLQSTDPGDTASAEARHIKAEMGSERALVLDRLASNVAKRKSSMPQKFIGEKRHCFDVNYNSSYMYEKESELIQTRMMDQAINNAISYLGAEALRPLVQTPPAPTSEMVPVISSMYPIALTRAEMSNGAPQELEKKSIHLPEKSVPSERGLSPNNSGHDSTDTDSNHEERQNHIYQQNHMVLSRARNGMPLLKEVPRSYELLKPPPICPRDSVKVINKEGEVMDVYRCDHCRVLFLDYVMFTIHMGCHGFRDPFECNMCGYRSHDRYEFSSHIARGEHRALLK", "sequence (Q96SW2 whole entry)": "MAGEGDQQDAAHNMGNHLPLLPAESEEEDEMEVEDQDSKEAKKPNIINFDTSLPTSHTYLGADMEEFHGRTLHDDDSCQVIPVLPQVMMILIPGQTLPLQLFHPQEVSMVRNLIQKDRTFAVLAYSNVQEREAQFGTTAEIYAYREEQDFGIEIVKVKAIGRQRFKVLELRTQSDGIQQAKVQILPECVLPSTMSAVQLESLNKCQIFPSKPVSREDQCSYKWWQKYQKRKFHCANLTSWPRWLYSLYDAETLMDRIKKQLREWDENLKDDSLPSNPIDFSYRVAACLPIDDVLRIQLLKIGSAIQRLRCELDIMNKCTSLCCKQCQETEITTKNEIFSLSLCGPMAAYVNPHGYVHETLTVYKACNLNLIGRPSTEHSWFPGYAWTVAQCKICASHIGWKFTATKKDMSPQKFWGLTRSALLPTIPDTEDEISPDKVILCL", "sequence (Q16531 whole entry partner)": "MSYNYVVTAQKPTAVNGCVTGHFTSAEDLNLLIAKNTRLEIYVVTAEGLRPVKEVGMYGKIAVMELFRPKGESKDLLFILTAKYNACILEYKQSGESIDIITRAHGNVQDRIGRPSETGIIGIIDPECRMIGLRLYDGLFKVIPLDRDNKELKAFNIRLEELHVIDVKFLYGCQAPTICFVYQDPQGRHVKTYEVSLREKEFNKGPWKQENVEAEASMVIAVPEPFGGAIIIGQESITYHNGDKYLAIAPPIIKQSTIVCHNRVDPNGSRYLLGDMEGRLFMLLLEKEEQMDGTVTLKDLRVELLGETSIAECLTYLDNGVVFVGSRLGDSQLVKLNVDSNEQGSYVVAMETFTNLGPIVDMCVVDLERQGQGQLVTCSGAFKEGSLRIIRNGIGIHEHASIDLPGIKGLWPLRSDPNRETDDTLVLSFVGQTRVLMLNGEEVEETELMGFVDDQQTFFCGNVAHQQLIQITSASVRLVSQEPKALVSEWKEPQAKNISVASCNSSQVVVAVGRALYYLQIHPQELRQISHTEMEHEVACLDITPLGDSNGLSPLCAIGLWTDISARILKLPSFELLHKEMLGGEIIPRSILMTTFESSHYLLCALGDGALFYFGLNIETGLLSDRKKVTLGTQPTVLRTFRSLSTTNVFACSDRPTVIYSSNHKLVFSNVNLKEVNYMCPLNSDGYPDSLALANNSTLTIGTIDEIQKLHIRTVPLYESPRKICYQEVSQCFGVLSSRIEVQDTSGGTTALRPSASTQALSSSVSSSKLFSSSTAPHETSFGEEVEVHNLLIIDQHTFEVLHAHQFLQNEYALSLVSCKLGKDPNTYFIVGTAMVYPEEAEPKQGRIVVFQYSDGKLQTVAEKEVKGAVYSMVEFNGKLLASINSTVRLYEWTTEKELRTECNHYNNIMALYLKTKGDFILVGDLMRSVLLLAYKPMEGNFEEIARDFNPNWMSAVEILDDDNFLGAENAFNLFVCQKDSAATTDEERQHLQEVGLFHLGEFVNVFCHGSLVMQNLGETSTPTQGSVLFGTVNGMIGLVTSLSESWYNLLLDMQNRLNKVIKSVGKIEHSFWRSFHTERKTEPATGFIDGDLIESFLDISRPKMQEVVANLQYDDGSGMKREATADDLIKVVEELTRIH", "experiment": "In cell western analysis of IKZF3 protein expression level in MM.1S cells", "protocol": "(§2) • 1) MM.1S cells in the logarithmic growth phase were seeded into a 96-well plate at 1.2x10^5 cells per well and cultured overnight. • 2) On the second day, drug treatment was initiated with a starting concentration of 300 nM, followed by a 3-fold dilution in triplicate wells, with 10 concentration gradients (containing DMSO), and incubated for 24 hours in a culture incubator. • 3) The mixture was centrifuged, and the cell supernatant was carefully removed. […] The mixture was incubated at room temperature on a shaker for 5 min. • 12) The washing step was repeated 4 times. • 13) The secondary antibody diluent was prepared by adding Tween 20 to the Licor [sequence] blocking buffer at a final concentration of 0.2%. • 14) The fluorescent secondary antibody was diluted in the dark (1:800 dilution). To 400 µL of the secondary antibody diluent, 0.5 µLeach of IRDye 800CW and IRDye 680CW was added (the corresponding fluorescent secondary antibody for the primary antibody). • 15) 50 µL of the diluted fluorescent secondary antibody was added to each well, followed by incubation at room temperature on a shaker in the dark for 60 min. • 16) The secondary antibody was removed, and 200 µL of PBST was added along the well wall without touching the bottom cells. […]\n(§3) GraphPad Prism 6 software was utilized to fit the curve with the inhibition rate data, and the DC50 value was calculated."}, "[1]": {"experiment": "Pharmacokinetic evaluation in beagle dogs", "format": "in vivo", "settings": "Beagle dogs (fed)", "source_text": "(§1) Male beagle dogs were selected as the experimental animals in this study. The LC/MS/MS method was employed to quantitatively determine the plasma drug concentrations at different time points after intravenous injection or intragastric administration of the test compound, aiming to evaluate the pharmacokinetic characteristics of the compound of the present disclosure in beagle dogs.\nBeagle dogs (male, 7 to 10 kg, Beijing Mars Biotechnology Co., Ltd.).\nA solution of the test compound was slowly injected intravenously into beagle dogs (fed) via the peripheral vein (vehicle: 5% DMSO/10% Solutol/85% H2O), or administered intragastrically to beagle dogs (fed). For intravenous administration, 0.5 mL of blood was collected from the peripheral vein at 0.083, 0.25, 0.5, 1, 2, 4, 6, 8, and 24 h after administration, placed in EDTA-2K anticoagulant tubes, and centrifuged at 3200 g for 10 minutes at 2 to 8°C to separate the supernatant. For intragastric administration, 0.5 mL of blood was collected from the peripheral vein at 0.083, 0.25, 0.5, 1, 2, 4, 6, 8, and 24 h after administration, placed in EDTA-2K anticoagulant tubes, and centrifuged at 3200 g for 10 minutes at 2 to 8°C to separate the supernatant. Plasma drug concentrations were determined by the LC-MS/MS method, and relevant pharmacokinetic parameters were calculated using Phoenix WinNonlin 6.3 or 8.3.5 pharmacokinetic software with non-compartmental model linear-log trapezoidal method."}, "[2]": {"experiment": "Pharmacokinetic evaluation in mice", "format": "in vivo, C57BL/6 or C57 mice", "source_text": "as §1, with “C57BL/6 or C57 male mice were” for “Male beagle dogs were”, “the test” for “the experimental”, “animals for” for “animals in”, “at various” for “at different”, “in mice.” for “in beagle dogs.”\nC57BL/6 or C57 mice (male, 20 to 30g, 7 to 10 weeks old, Beijing Vital River).\nA clear solution of the test compound was injected intravenously into the tail vein of C57BL/6 mice (fasted overnight) (vehicle: 10% DMSO/10% solutol/80% H2O), or administered intragastrically to C57 mice (fed). […] The mixture was thoroughly vortexed and mixed, and centrifuged at 6000 g for 3 minutes at 2 to 8°C. […] The mixture was thoroughly vortexed and mixed, and centrifuged at 6000 g for 3 minutes at 2 to 8°C. Plasma drug concentrations were determined by the LC-MS/MS method, and relevant pharmacokinetic parameters were calculated using Phoenix WinNonlin 8.2.0 pharmacokinetic software with non-compartmental model linear-log trapezoidal method. Table 20. Pharmacokinetic parameters of the compound of the present disclosure in mice"}, "IKZF1": {"biological_target": "IKZF1 (Homo sapiens, UniProt Q13422+Q96SW2)", "sequence (Q13422 whole entry)": "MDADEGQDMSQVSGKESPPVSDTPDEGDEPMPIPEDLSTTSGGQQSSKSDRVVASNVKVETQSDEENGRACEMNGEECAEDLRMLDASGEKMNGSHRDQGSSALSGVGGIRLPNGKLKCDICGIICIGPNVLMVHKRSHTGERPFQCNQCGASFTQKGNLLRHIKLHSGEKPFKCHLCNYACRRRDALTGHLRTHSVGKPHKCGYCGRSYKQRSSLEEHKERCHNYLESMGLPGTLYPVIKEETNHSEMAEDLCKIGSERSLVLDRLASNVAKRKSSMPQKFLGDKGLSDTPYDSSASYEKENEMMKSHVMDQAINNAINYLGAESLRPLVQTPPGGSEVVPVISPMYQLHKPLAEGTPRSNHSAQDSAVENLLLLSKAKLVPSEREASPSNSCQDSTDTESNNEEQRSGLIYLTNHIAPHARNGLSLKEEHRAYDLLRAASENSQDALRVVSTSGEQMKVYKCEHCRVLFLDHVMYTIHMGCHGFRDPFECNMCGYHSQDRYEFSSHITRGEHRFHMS", "sequence (Q96SW2 whole entry)": "as the sequence (Q96SW2 whole entry) above", "sequence (Q16531 whole entry partner)": "as the sequence (Q16531 whole entry partner) above", "experiment": "In cell western analysis of IKZF1 protein expression level in MM.1S cells", "protocol": "as §2, §3"}, "[3]": {"settings": "MM1.S, read-out: Maximum Degradation Rate Dmax"}, "[4]": {"settings": "Intragastric Administration, 5 mg/kg"}, "[5]": {"settings": "Intragastric Administration, 15 mg/kg"}, "[6]": {"settings": "Intravenous Injection (0.5 mg/kg)"}, "[7]": {"settings": "Intragastric administration (10 mg/kg) (fed)"}}, "note": "Where a name gives a salt, the structure may show the parent alone."}
{"smiles": "O=C1CCC(c2noc3ccc4c(NC(=O)CN5CCN(C[C@H]6CC[C@H](n7cc(NC(=O)c8coc(-c9ccnc(NCC%10CC%10)c9)n8)c(C(F)F)n7)CC6)CC5)cccc4c23)C(=O)N1", "note": "(relative stereo) [Hydrochloride of Compound of Formula (I)]", "values": [{"measurement": "Dmax", "setting": "IRAK4; K562, read-out: Maximum Degradation Rate", "value": 108, "unit": "%"}, {"measurement": "DC50", "setting": "IRAK4; K562 IRAK4-HiBiT cells, incubated 16 to 18 hours", "value": 4.87, "unit": "nM"}, {"measurement": "DC50", "setting": "IKZF3; IKZF3, MM.1S cells, 24 hours", "value": 20.6, "unit": "nM"}, {"measurement": "Dmax", "setting": "IKZF3; [3]", "value": 73.5, "unit": "%"}, {"measurement": "Area Under the Drug-Time Curve (0-inf)", "setting": "[1]; [4]", "value": 3.20, "unit": "µM·h"}, {"measurement": "Peak Concentration", "setting": "[1]; [4]", "value": 0.41, "unit": "µM"}, {"measurement": "Time to Peak Concentration", "setting": "[1]; [4]", "value": 4.00, "unit": "h"}, {"measurement": "Area Under the Drug-Time Curve (0-inf)", "setting": "[1]; [5]", "value": 8.02, "unit": "µM·h"}, {"measurement": "Peak Concentration", "setting": "[1]; [5]", "value": 0.87, "unit": "µM"}, {"measurement": "Time to Peak Concentration", "setting": "[1]; [5]", "value": 4.00, "unit": "h"}, {"measurement": "Apparent Distribution Volume", "setting": "[1]; [6]", "value": 5.83, "unit": "L/kg"}, {"measurement": "Area Under the Drug-Time Curve (0-inf)", "setting": "[1]; [6]", "value": 0.44, "unit": "µM·h"}, {"measurement": "Area Under the Drug-Time Curve (0-inf)", "setting": "[2]; [7]", "value": 4.47, "unit": "µM·h"}, {"measurement": "Peak Concentration", "setting": "[2]; [7]", "value": 0.54, "unit": "µM"}, {"measurement": "Time to Peak Concentration", "setting": "[2]; [7]", "value": 1.00, "unit": "h"}, {"measurement": "Area Under the Drug-Time Curve (0-inf)", "setting": "[2]; Intravenous Injection (2 mg/kg) (fasted)", "value": 5.40, "unit": "µM·h"}, {"measurement": "DC50", "setting": "IKZF1; IKZF1, MM.1S cells, 24 hours", "value": 23.4, "unit": "nM"}, {"measurement": "Dmax", "setting": "IKZF1; [3]", "value": 72.3, "unit": "%"}]}
